According to patent US20050282743A1, “Molecular interactions in cells” (Arbor Vita Corporation, priority 2001, published 2005):
One block for each compound: values may come before it. Ends that are not written are not given here. Peptide text beside a SMILES is read from it. * marks the point of attachment. Biotin = O=C1N[C@H]2[C@H](CS[C@H]2CCCCC(=O)*)N1

What was measured:
Test in all cases: G' assay (10 uM PL peptide), results of TABLE 7 and TABLE 12
Format in all cases: binding
[1] = target: T1, PDZ protein (GST-PDZ fusion) (Homo sapiens, UniProt Q6P0Q8)
T1 construct: made in house; host or cells: E. coli (DH5alpha, BL21 or JM109)
Method in brief: (§1)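 Binding classes derive from A450 nm of bound biotin-tagged PL peptide. A score of 5 needs A450 above 4 in more than two repeats.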

[2] = tested on: PDZ protein (GST-PDZ fusion)
Method in brief: as §1

[3] = target: T2, PDZ protein (GST-PDZ fusion) (Homo sapiens, UniProt O75970)
T2 construct: made in house; host or cells: E. coli (DH5alpha, BL21 or JM109)
Method in brief: as §1

[4] = target: T3, PDZ protein (GST-PDZ fusion) (Homo sapiens, UniProt Q96JH8); conditions: PDZ FLJ 10324, PDZ Domain 1
T3 construct: made in house; host or cells: E. coli (DH5alpha, BL21 or JM109)
T3 sequence (Q96JH8 1-1075): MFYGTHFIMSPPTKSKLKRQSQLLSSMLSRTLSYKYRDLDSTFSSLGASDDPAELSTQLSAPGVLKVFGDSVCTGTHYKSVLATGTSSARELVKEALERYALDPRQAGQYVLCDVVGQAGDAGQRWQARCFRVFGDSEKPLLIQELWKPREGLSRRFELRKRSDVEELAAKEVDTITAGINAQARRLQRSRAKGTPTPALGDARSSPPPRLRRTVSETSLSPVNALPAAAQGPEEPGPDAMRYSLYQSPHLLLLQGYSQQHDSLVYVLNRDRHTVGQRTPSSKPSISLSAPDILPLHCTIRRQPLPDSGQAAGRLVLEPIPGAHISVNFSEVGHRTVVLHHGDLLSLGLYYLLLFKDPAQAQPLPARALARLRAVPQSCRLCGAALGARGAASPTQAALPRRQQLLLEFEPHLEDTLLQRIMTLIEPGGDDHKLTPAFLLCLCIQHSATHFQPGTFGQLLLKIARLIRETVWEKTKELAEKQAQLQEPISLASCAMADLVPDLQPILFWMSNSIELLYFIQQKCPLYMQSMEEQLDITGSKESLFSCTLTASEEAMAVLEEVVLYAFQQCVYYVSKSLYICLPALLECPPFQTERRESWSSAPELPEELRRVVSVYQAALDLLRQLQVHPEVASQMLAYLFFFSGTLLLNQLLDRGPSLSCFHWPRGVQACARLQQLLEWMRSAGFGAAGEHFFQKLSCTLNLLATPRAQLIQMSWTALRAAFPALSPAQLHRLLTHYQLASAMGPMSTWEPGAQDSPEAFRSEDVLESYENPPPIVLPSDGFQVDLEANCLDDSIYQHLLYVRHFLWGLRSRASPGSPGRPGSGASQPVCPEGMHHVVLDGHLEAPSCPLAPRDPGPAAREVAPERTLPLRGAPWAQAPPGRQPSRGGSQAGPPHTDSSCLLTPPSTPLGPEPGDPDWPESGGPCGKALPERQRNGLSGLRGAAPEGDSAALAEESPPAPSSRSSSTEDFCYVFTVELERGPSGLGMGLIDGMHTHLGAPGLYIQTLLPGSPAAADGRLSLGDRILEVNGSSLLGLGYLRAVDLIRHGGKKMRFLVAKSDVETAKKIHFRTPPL
Method in brief: as §1

[5] = target: T4, PDZ protein (GST-PDZ fusion) (Homo sapiens, UniProt Q12923)
T4 construct: made in house; host or cells: E. coli (DH5alpha, BL21 or JM109)
Method in brief: as §1

[6] = PDZ HEMBA 1003117, PDZ Domain 1

T4 sequence (Q12923 whole entry, the tested form may be a part): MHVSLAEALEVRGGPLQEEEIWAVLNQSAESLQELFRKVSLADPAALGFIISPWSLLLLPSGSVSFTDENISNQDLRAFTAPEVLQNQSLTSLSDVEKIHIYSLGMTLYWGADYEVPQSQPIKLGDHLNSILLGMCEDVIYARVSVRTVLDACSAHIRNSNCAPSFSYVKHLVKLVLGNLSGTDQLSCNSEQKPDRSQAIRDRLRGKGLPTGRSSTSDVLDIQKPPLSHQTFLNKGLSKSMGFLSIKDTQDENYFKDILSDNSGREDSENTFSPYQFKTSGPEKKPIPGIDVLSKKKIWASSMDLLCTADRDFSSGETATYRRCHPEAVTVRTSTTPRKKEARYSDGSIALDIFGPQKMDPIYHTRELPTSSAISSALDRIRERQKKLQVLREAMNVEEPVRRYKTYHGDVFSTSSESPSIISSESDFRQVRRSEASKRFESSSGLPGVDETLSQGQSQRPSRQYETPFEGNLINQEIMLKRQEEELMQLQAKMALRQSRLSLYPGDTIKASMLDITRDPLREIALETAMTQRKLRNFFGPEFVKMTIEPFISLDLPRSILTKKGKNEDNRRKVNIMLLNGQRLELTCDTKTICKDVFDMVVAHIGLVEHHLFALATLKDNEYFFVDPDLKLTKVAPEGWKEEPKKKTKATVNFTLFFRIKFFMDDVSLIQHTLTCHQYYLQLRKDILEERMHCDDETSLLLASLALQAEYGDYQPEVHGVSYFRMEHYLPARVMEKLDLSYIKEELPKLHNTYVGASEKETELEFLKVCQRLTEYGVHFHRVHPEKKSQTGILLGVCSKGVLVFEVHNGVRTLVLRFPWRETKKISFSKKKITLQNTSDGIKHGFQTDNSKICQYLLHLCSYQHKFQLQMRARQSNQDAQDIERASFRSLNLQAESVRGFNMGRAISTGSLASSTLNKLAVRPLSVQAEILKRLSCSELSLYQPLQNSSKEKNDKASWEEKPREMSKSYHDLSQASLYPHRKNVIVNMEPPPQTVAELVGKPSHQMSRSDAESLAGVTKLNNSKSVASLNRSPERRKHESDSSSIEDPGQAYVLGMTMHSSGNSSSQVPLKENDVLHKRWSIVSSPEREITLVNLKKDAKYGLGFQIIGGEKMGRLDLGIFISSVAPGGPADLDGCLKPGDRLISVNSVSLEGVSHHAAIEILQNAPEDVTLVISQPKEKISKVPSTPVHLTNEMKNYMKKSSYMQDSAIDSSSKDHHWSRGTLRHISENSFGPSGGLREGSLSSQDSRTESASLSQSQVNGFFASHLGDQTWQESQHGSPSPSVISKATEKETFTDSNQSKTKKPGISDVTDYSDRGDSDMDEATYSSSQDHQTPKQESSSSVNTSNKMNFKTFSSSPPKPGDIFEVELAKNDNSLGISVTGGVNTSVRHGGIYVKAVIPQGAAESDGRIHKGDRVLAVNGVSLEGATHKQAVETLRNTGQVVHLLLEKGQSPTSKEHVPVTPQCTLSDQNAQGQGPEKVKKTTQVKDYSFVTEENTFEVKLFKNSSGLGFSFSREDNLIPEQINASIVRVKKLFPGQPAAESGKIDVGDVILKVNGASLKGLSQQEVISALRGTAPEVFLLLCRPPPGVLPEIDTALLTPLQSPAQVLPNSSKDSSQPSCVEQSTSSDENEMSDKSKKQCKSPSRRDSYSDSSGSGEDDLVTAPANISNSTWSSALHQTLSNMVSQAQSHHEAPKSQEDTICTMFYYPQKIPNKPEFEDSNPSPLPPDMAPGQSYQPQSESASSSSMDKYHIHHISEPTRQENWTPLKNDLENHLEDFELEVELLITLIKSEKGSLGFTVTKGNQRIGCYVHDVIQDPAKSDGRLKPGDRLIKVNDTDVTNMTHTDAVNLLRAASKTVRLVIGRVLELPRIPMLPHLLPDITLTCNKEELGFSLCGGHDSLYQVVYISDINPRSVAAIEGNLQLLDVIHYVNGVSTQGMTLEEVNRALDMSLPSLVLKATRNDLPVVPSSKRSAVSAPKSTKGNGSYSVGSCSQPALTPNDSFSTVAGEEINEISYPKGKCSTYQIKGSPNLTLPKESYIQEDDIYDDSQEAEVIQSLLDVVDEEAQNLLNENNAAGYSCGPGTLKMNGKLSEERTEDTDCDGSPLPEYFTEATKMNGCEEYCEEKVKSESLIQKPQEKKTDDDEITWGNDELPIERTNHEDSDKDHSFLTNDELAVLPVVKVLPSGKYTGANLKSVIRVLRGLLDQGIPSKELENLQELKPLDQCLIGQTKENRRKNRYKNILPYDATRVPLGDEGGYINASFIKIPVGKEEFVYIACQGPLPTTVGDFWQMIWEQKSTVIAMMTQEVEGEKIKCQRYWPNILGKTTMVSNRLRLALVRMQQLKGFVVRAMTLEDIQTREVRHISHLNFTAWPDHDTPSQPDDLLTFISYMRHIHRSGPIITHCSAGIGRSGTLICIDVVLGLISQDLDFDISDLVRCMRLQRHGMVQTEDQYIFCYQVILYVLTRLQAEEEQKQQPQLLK
T2 sequence (O75970 whole entry, the tested form may be a part): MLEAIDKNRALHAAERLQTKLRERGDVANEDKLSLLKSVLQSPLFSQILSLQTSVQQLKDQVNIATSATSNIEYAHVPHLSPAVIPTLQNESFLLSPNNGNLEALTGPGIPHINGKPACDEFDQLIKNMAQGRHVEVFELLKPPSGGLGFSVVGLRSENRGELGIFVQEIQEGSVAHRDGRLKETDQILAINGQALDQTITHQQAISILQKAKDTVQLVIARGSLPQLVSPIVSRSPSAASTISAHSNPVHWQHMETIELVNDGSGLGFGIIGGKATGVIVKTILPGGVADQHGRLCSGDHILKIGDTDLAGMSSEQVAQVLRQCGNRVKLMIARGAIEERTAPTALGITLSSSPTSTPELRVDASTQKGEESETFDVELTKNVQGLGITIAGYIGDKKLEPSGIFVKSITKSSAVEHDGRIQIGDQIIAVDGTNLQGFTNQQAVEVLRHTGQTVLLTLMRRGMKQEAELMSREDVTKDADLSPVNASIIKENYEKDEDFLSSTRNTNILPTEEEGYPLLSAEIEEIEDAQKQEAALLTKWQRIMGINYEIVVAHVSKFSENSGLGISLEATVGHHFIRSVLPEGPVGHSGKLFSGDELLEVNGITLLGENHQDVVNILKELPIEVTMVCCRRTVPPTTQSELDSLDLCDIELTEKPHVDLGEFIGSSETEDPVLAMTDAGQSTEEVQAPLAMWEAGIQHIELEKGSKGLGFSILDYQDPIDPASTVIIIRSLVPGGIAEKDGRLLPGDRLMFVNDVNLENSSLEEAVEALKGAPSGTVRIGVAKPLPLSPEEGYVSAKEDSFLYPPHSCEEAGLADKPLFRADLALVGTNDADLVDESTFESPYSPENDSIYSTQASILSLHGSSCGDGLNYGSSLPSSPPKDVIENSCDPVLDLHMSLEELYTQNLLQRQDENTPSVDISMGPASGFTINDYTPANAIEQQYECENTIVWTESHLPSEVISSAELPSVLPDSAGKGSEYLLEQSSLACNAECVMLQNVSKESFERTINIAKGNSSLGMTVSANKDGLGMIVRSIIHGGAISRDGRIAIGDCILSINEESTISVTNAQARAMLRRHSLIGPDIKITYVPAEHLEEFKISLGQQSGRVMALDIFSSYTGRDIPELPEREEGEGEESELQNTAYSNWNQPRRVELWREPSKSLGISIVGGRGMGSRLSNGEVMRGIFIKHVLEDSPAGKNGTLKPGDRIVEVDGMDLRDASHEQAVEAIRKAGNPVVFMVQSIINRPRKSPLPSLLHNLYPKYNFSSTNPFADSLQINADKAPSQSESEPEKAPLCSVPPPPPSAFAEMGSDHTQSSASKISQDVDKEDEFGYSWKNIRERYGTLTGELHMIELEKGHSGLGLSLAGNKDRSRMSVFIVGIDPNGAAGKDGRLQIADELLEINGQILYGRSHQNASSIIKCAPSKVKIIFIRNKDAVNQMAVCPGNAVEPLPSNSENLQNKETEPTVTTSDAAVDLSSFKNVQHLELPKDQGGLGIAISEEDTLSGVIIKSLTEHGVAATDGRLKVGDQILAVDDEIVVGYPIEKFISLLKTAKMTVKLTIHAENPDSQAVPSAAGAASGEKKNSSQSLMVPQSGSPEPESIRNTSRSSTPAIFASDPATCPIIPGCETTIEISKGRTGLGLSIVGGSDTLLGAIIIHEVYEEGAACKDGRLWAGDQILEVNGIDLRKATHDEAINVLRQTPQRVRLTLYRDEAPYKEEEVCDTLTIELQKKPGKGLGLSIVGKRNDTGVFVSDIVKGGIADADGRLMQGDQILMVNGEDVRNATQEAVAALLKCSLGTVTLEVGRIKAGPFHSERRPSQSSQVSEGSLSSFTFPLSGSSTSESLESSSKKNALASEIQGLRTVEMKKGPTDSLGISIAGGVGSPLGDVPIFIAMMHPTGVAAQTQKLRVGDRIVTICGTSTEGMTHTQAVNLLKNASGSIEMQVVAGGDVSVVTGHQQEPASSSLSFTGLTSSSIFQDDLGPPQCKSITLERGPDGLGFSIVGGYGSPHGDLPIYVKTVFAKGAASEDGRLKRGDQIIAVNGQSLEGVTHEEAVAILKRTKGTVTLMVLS

- Classification ([1]; PDZ KIAA807): 4 (A450 nm 3-4)
- Classification ([1]; PDZ KIAA0807(S), PDZ Domain 1): 4 (A450 nm 3-4)
- Classification [4]: 5 (A450 nm of 4 more than 2× repeated)
- Classification ([5]; PDZ PTPL-1, PDZ Domain 4): 3 (A450 nm 2-3)
Compound: CC(C)C[C@H](NC(=O)[C@H](Cc1c[nH]c2ccccc12)NC(=O)[C@H](Cc1c[nH]cn1)NC(=O)[C@H](CCCNC(=N)N)NC(=O)[C@H](CC(C)C)NC(=O)[C@@H](NC(=O)[C@H](Cc1ccccc1)NC(=O)[C@H](CCC(N)=O)NC(=O)[C@H](CCCNC(=N)N)NC(=O)[C@@H](NC(=O)[C@H](CCC(=O)O)NC(=O)CNC(=O)[C@H](CCCNC(=N)N)NC(=O)[C@H](CC(=O)O)NC(=O)[C@@H](NC(=O)[C@H](CC(C)C)NC(=O)[C@H](CCC(=O)O)NC(=O)[C@H](CCCNC(=N)N)NC(=O)CCCC[C@@H]1SC[C@@H]2NC(=O)N[C@@H]21)C(C)C)C(C)C)[C@@H](C)O)C(=O)N[C@@H](CCCCN)C(=O)N[C@H](C(=O)O)C(C)C [Dopamine transporter (Na+-dependent)] (Biotin-RELVDRGEVRQFTLRHWLKV-OH; C-terminus assumed)
- Classification [2, 6]: 5 (A450 nm of 4 more than 2× repeated)

- Classification ([1]; PDZ KIAA807): 3 (A450 nm 2-3)
- Classification [4]: 1 (A450 nm 0-1)
- Classification ([5]; PDZ PTPL-1, PDZ Domain 2): 1 (A450 nm 0-1)
- Classification ([5]; PDZ PTPL-1, PDZ Domain 4): 1 (A450 nm 0-1)
Compound: CC(C)C[C@H](NC(=O)CNC(=O)[C@@H](NC(=O)[C@H](CO)NC(=O)[C@H](CC(N)=O)NC(=O)[C@H](Cc1ccccc1)NC(=O)CNC(=O)[C@H](C)NC(=O)[C@H](C)NC(=O)[C@H](Cc1ccccc1)NC(=O)[C@@H](NC(=O)CCCC[C@@H]1SC[C@@H]2NC(=O)N[C@@H]21)[C@@H](C)O)[C@@H](C)O)C(=O)N1CCC[C@H]1C(=O)N[C@@H](Cc1c[nH]cn1)C(=O)N[C@@H](CO)C(=O)N[C@H](C(=O)N[C@H](C(=O)N[C@@H](CCCNC(=N)N)C(=O)N[C@H](C(=O)O)C(C)C)[C@@H](C)O)[C@@H](C)O [Neuroligin] (Biotin-TFAAGFNSTGLPHSTTRV-OH; C-terminus assumed)
- Classification ([2]; PDZ SHANK, PDZ Domain 1): 2 (A450 nm 1-2)

- Classification ([3]; PDZ MUPP-1, PDZ Domain 11): 1 (A450 nm 0-1)
- Classification [4]: 1 (A450 nm 0-1)
- Classification ([5]; PDZ PTPL-1, PDZ Domain 4): 1 (A450 nm 0-1)
Compound: GPVPGEPAKPKTSAHHATFV (Biotin-GPVPGEPAKPKTSAHHATFV)
- Classification [2, 6]: 1 (A450 nm 0-1)

- Classification ([1]; PDZ KIAA0807(S), PDZ Domain 1): 3 (A450 nm 2-3)
- Classification ([1]; PDZ KIAA807 (domain not given)): 4 (A450 nm 3-4)
- Classification [4]: 3 (A450 nm 2-3)
- Classification ([5]; PDZ PTPL-1, PDZ Domain 2): 5 (A450 nm of 4 more than 2× repeated)
- Classification ([5]; PDZ PTPL-1, PDZ Domain 4): 1 (A450 nm 0-1)
Compound: PYSELNYETSHYPASPDSWV (Biotin-PYSELNYETSHYPASPDSWV) [catenin - delta 2]
- Classification ([2]; PDZ BAI-1, PDZ Domain 3): 1 (A450 nm 0-1)
- Classification [2, 6]: 1 (A450 nm 0-1)

The remaining lines, values behind:

Compound: CC[C@H](C)[C@H](NC(=O)[C@H](CCCCN)NC(=O)[C@@H](NC(=O)[C@H](CO)NC(=O)[C@@H]1CCCN1C(=O)[C@H](Cc1ccccc1)NC(=O)[C@@H](NC(=O)[C@@H](NC(=O)[C@H](CCCNC(=N)N)NC(=O)[C@H](CCC(=O)O)NC(=O)[C@H](CC(C)C)NC(=O)[C@H](CC(C)C)NC(=O)[C@H](CC(C)C)NC(=O)[C@@H](NC(=O)CNC(=O)[C@@H](NC(=O)CCCC[C@@H]1SC[C@@H]2NC(=O)N[C@@H]21)C(C)C)[C@@H](C)O)C(C)C)[C@@H](C)CC)C(C)C)C(=O)N[C@@H](C)C(=O)N[C@H](C(=O)N[C@@H](CC(C)C)C(=O)N[C@H](C(=O)O)C(C)C)[C@@H](C)O [Adenovirus E4 Type9]
- Classification ([1]; PDZ KIAA0807(S), PDZ Domain 1, Protein Optimal Conc 5): 3 (A450 nm 2-3)
- Classification ([1]; PDZ KIAA807 (domain not given), PL peptide 10 uM): 4 (A450 nm 3-4)
- Classification ([2]; PDZ BAI-1, PDZ Domain 2, Protein Optimal Conc 0.3): 5 (A450 nm of 4 more than 2× repeated)
- Classification ([2]; PDZ BAI-1, PDZ Domain 3, Protein Optimal Conc 0.5): 5 (A450 nm of 4 more than 2× repeated)
- Classification ([2]; PDZ BAI-1, PDZ Domain 4, Protein Optimal Conc 0.3): 5 (A450 nm of 4 more than 2× repeated)
- Classification ([2]; PDZ BAI-1, PDZ Domain 6, PL peptide 10 uM): 1 (A450 nm 0-1)
- Classification ([2]; PDZ Connector Enhancer, PDZ Domain 1, Protein Optimal Conc 5): 3 (A450 nm 2-3)
- Classification ([2]; PDZ FLJ 00011, PDZ Domain 1, PL peptide 10 uM): 1 (A450 nm 0-1)
- Classification ([2]; PDZ HEMBA 1003117, PDZ Domain 1, Protein Optimal Conc 5): 3 (A450 nm 2-3)
- Classification ([3]; PDZ MUPP-1, PDZ Domain 10, PL peptide 10 uM): 1 (A450 nm 0-1)
- Classification ([3]; PDZ MUPP-1, PDZ Domain 11, Protein Optimal Conc 5): 5 (A450 nm of 4 more than 2× repeated)
- Classification ([4]; Protein Optimal Conc 5): 3 (A450 nm 2-3)
- Classification ([5]; PDZ PTPL-1, PDZ Domain 2, Protein Optimal Conc 5): 3 (A450 nm 2-3)
- Classification ([5]; PDZ PTPL-1, PDZ Domain 4, PL peptide 10 uM): 4 (A450 nm 3-4)

Compound: CC(C)C[C@H](NC(=O)[C@H](C)NC(=O)[C@@H](NC(=O)[C@@H](NC(=O)[C@H](Cc1c[nH]cn1)NC(=O)[C@H](CC(C)C)NC(=O)CNC(=O)[C@H](CCC(N)=O)NC(=O)CNC(=O)CNC(=O)[C@H](C)NC(=O)[C@H](C)NC(=O)[C@H](CCCNC(=N)N)NC(=O)[C@H](C)NC(=O)[C@H](CO)NC(=O)[C@H](CC(=O)O)NC(=O)[C@H](CC(=O)O)NC(=O)[C@H](Cc1c[nH]c2ccccc12)NC(=O)[C@H](C)NC(=O)CCCC[C@@H]1SC[C@@H]2NC(=O)N[C@@H]21)C(C)C)[C@@H](C)O)C(=O)O [LPAP] (Biotin-AWDDSARAAGGQGLHVTAL-OH; C-terminus assumed)
- Classification ([1]; PDZ KIAA807): 5 (A450 nm of 4 more than 2× repeated)
- Classification ([2]; PDZ BAI-1, PDZ Domain 2): 2 (A450 nm 1-2)
- Classification ([2]; PDZ FLJ 00011, PDZ Domain 1): 4 (A450 nm 3-4)
- Classification [2, 6]: 1 (A450 nm 0-1)
- Classification ([2]; PDZ SHANK, PDZ Domain 1): 3 (A450 nm 2-3)
- Classification ([2]; PDZ Unnamed Protein, PDZ Domain 2): 3 (A450 nm 2-3)
- Classification [4]: 1 (A450 nm 0-1)
- Classification ([5]; PDZ PTPL-1, PDZ Domain 2): 1 (A450 nm 0-1)

Compound: CC[C@H](C)[C@H](NC(=O)[C@H](CCC(N)=O)NC(=O)CCCC[C@@H]1SC[C@@H]2NC(=O)N[C@@H]21)C(=O)N[C@@H](CO)C(=O)N1CCC[C@H]1C(=O)NCC(=O)NCC(=O)N[C@@H](CC(C)C)C(=O)N[C@@H](CCC(=O)O)C(=O)N1CCC[C@H]1C(=O)N1CCC[C@H]1C(=O)N[C@@H](CO)C(=O)N[C@@H](CCC(=O)O)C(=O)N[C@@H](CCCCN)C(=O)N[C@@H](Cc1c[nH]cn1)C(=O)N[C@@H](Cc1ccccc1)C(=O)N[C@@H](CCCNC(=N)N)C(=O)N[C@@H](CCC(=O)O)C(=O)N[C@H](C(=O)N[C@@H](CCC(=O)O)C(=O)N[C@H](C(=O)O)C(C)C)[C@@H](C)O [Tax]
- Classification ([2]; PDZ BAI-1, PDZ Domain 2): 5 (A450 nm of 4 more than 2× repeated)
- Classification ([2]; PDZ BAI-1, PDZ Domain 3): 1 (A450 nm 0-1)
- Classification ([2]; PDZ BAI-1, PDZ Domain 4): 2 (A450 nm 1-2)
- Classification ([2]; PDZ BAI-1, PDZ Domain 5): 5 (A450 nm of 4 more than 2× repeated)
- Classification ([2]; PDZ BAI-1, PDZ Domain 6): 1 (A450 nm 0-1)
- Classification ([2]; PDZ Connector Enhancer, PDZ Domain 1): 1 (A450 nm 0-1)
- Classification ([2]; PDZ FLJ 00011, PDZ Domain 1): 1 (A450 nm 0-1)
- Classification ([2]; PDZ FLJ 11215, PDZ Domain 1): 1 (A450 nm 0-1)
- Classification ([3]; PDZ MUPP-1, PDZ Domain 13): 5 (A450 nm of 4 more than 2× repeated)
- Classification [4]: 1 (A450 nm 0-1)
- Classification ([5]; PDZ PTPL-1, PDZ Domain 2): 2 (A450 nm 1-2)
